Values quoted from earlier work as cited in patent US20260263393A1, “CO[…], […] COMBINATION WITH N-ACYLETHANOLAMINES, AND USES THEREOF” (Clearmind Labs Corp., priority 2023, published 2026).

Conditions: ibogaine administered to treat drug dependence

## CC[C@H]1CC2C[C@H]3c4[nH]c5ccc(OC)cc5c4CC[N@@](C2)C13 [ibogaine, Ibogaine]
  reduction in drug craving (duration): up to several weeks
  sustained resolution of the withdrawal syndromes (time to): 12 to 18 h
